Source: ChEMBL document CHEMBL3988442, “University of Dundee, Small-Polar-MMV Screening Library” (2021)

Experiment: In vitro enzyme assay to detect hydrolysis of chlorophenol red-beta-D-[…] directly proportional to the number of Toxoplasma stably expressing beta-galactosidase
Assay type: functional, organism-based, Toxoplasma gondii
Conditions: Toxoplasma gondii

Compound	IC50 [µM]
CCCc1ccc2oc(C(=O)N3CCC(O)CC3)c(C)c2c1	> 50.1
Cc1nnc(NCc2cccc(OCC3CCCO3)c2)c(C#N)c1C (stereo unspecified)	> 50.1
CC(=O)N1CCN(c2ncnc3cc4c(cc23)OCCO4)CC1	> 50.1
CCC(=O)N1CCN(c2ncnc3cc4c(cc23)OCCO4)CC1	> 50.1
CC(C)C(=O)N1CCN(c2ncnc3cc4c(cc23)OCCO4)CC1	> 50.1
CCC(=O)N1CCN(c2nc(C)nc3c(C)nn(C)c23)CC1	> 50.1
Cc1nc(N2CCN(C(=O)c3ccncc3)CC2)c2c(n1)c(C)nn2C	> 50.1
CCn1cc(CN(C)S(=O)(=O)c2ccccc2)cn1	> 50.1
Cc1cc(C(=O)NCc2ccco2)nn1C	> 50.1
Cc1ccc(CNC(=O)c2cc(C)n(C)n2)o1	> 50.1
COCCNc1cc(C)nn2cnnc12	> 50.1
CC(=O)Nc1ncc(S(=O)(=O)Nc2ccccc2)s1	> 50.1
CC(=O)Nc1ncc(S(=O)(=O)Nc2cccc(F)c2)s1	> 50.1
CC(=O)Nc1ncc(S(=O)(=O)Nc2ccccc2F)s1	31.2
CC(=O)Nc1ncc(S(=O)(=O)Nc2ccc(C)cc2)s1	> 50.1
CC(=O)Nc1ncc(S(=O)(=O)Nc2cccc(C)c2)s1	> 50.1
COc1ccc(NS(=O)(=O)c2cnc(NC(C)=O)s2)cc1	> 50.1
CC(=O)Nc1ncc(S(=O)(=O)Nc2cccc(O)c2)s1	> 50.1
COC(=O)c1ccc(NS(=O)(=O)c2cnc(NC(C)=O)s2)cc1	> 50.1
CCOCCCNc1cc(C)nn2cnnc12	> 50.1
Cc1cc(NCCCOC(C)C)c2nncn2n1	> 50.1
Cc1nn(C)c2c(=O)n(Cc3ccc(F)cc3)nnc12	> 50.1

Compound	IC50 [µM]
Cc1nn(C)c2c(=O)n(Cc3ccc(Cl)cc3)nnc12	> 50.1
Cc1nn(C)c2c(=O)n(Cc3ccccc3)nnc12	> 50.1
Cc1nc(N2CCN(c3ccccc3)CC2)c2c(n1)c(C)nn2C	> 50.1
CCn1c(NCc2cccnc2)nc2c(C)nn(C)c2c1=O	> 50.1
CCn1c(NCc2ccc(OC)cc2)nc2c(C)nn(C)c2c1=O	> 50.1
Cc1nn(C)c2c(=O)n(C(C)C)c(NCCc3ccccc3)nc12	36.1
CCCn1c(NCCc2ccccc2)nc2c(C)nn(C)c2c1=O	31.5
CCCn1c(N2CCCCC2)nc2c(C)nn(C)c2c1=O	34.4
CCn1c(SCC(N)=O)nnc1C(C)NC(=O)c1ccc(Cl)cc1 (stereo unspecified)	> 50.1
Cc1cc(C(=O)Nc2cnn(CC(F)(F)F)c2)nc(N2CCOCC2)n1	> 50.1
Cc1cc(C(=O)Nc2cnn(CC(F)(F)F)c2)nc(N(C)C)n1	> 50.1
Cc1c(NC(=O)c2ccc(Br)cc2)c(C(=O)N(C)C)nn1C	> 50.1
COc1ccc(C(=O)Nc2c(C(=O)N(C)C)nn(C)c2C)cc1	> 50.1
Cn1ncc(C(=O)N2CCN(CCS(C)(=O)=O)CC2)c1Cl	> 50.1
O=C(c1ccc(-c2ccc(O)nc2)s1)N1CCCCCC1	> 50.1
O=C(c1ccc(-c2ccc(O)nc2)s1)N1CCCCC1	> 50.1
Cn1ncc(C(=O)N2CCN(S(C)(=O)=O)CC2)c1Cl	> 25.1
CC(C)S(=O)(=O)N1CCN(C(=O)c2cnn(C)c2Cl)CC1	> 50.1
Cn1ncc(C(=O)N2CCN(C(=O)c3ccco3)CC2)c1Cl	> 50.1
CCn1c(SCC(=O)O)nnc1C(C)NC(=O)c1ccc(Cl)cc1 (stereo unspecified)	> 50.1
CC(NC(=O)c1ccc(Cl)cc1)c1nnc(SCC(=O)O)n1C (stereo unspecified)	29.3
CCc1nnc(Nc2cc(C)nc(C3CN(C(=O)C(C)C)CCO3)c2)s1 (stereo unspecified)	> 50.1

Compound	IC50 [µM]
CCc1nnc(Nc2cc(C)nc(C3CCN(c4ccncn4)C3)n2)s1 (stereo unspecified)	> 50.1
CCn1ccc(-c2cc(NCCCOc3ccccc3C)nc(C)n2)n1	11.7
Cc1ncc(CN2CCOC(c3ccc(-c4ccccc4F)cn3)C2)s1 (stereo unspecified)	9.61
CN1CCN(Cc2c(-c3ccco3)[nH]c3ncccc23)CC1	> 50.1
CC(=O)N1C[C@@H](c2ccsc2)[C@@H]2CN(Cc3ccccc3C)CC[C@@H]21	18.9
Cc1nc(C2(NCc3c(C)nn(C)c3N3CCOCC3)CCC2)no1	25.3
CC(NCC(=O)Nc1ccc(N2CCCCCC2)cc1)c1cccs1 (stereo unspecified)	19.9
OC(CNC1CCSCC1)c1cccc(OCc2ccccc2)c1 (stereo unspecified)	17.2
CN1CCC(NCC(O)c2cccc(OCc3ccccc3)c2)CC1 (stereo unspecified)	7.98
N#Cc1c(Cl)nsc1NCC1(c2ccccc2)CCC1	5.72
Cc1[nH]c2ccccc2c1-c1ccnc(N[C@@H](C)CO)n1	43.3
Cc1[nH]c2ccccc2c1-c1ccnc(N[C@@H](CO)C(C)C)n1	19.8
Cc1[nH]c2ccccc2c1-c1ccnc(N[C@H](CO)CC(C)C)n1	> 50.1
c1cc(-c2c[nH]nc2C2CCCCC2)nc(N2CCCCCC2)n1	6.23
OC[C@H]1CCCN1c1nccc(-c2c[nH]nc2C2CCCCC2)n1	11.5
NC(=O)C1CCN(c2nccc(-c3c[nH]nc3C3CCCCC3)n2)CC1	8.32
Fc1ccc(-c2n[nH]cc2-c2ccnc(NCCN3CCCC3)n2)cc1	7.48
Cc1c(C(=O)NCC2CCN(C)C2)n(C)c2c(C)cccc12 (stereo unspecified)	> 50.1
COCCN(Cc1ccccc1Cl)c1nc(CCN)nc2ccccc12	13
CC(C)N1CCCN(c2nc(-c3cccnc3)nc3c2cnn3C)CC1	5.84
CC(C)(C)c1ccc(-n2ncc3c2CCCC3N)cc1 (stereo unspecified)	16.4
Cc1cnc(NC(=O)c2cccc(CN(C)Cc3ncccc3C)c2)s1	13.6
